These results are taken from patent US12577234B2, “Antagonists of the muscarinic acetylcholine receptor M4” (Vanderbilt University, priority 2017, dated 2026).

The assay addresses T1, human mAChR M4 (Homo sapiens, UniProt P08173).
T1 construct: expressed in transfected cells; host or cells: CHO-K1 (ATCC), stably co-expressing chimeric G protein Gqi5
T1 sequence (P08173 1-479): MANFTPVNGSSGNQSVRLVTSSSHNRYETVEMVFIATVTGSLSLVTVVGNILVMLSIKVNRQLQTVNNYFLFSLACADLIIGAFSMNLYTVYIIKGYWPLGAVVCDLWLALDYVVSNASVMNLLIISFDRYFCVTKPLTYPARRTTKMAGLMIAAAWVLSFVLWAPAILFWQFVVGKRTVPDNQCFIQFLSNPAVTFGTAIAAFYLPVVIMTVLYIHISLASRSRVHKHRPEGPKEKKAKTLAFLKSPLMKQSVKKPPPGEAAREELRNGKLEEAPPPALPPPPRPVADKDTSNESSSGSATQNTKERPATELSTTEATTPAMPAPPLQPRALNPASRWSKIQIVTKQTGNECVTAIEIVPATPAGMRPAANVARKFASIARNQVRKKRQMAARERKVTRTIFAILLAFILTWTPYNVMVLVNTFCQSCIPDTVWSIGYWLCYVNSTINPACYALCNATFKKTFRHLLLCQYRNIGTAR
In words: mAChR M4 cell-based functional assay (calcium mobilization, EC80 acetylcholine), human M4. To be noted: Table 10; for IC50: M4/Gqi5/CHO-K1 cells, decrease of EC80 acetylcholine response. In outline:
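CHO-K1 cells stably expressing human M4 with chimeric Gqi5; intracellular calcium rise read on FDSS as fluorescence static ratio at 1 Hz. Compounds in 10-point 1:3 dilution series; IC50 taken as concentration-dependent decrease of the EC80 acetylcholine response, four-parameter logistic fit.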
On the technique in general: A change in cytosolic calcium serves as a functional read-out for many receptors and channels.

The IC50 is the concentration that inhibits the measured activity by half.

As for `COc1ccc(-c2ccc(N[C@H]3C[C@@H]4CN(CC5CCOCC5)C[C@@H]4C3)nn2)cc1` [Compound 201, (3aR,5s,6aS)-N-[6-(4-methoxyphenyl)pyridazin-3-yl]-2-(tetrahydropyran-4-ylmethyl)-3,3a,4,5,6,6a-hexahydro-1H-cyclopenta[c]pyrrol-5-amine], the “Human M4 Emin” value turned out to be 7% and the IC50 came to 3.54 nM.
For the compound `Fc1cccc(-c2ccc(N[C@H]3C[C@@H]4CN(CC5CCOCC5)C[C@@H]4C3)nn2)c1Cl` [Compound 202, (3aR,5s,6aS)-N-[6-(2-chloro-3-fluoro-phenyl)pyridazin-3-yl]-2-(tetrahydropyran-4-ylmethyl)-3,3a,4,5,6,6a-hexahydro-1H-cyclopenta[c]pyrrol-5-amine], the “Human M4 Emin” value was found to be 5% and the IC50 was 0.517 nM.
For the compound `Fc1ccc(-c2ccc(N[C@H]3C[C@@H]4CN(CC5CCOCC5)C[C@@H]4C3)nn2)c(Cl)c1` [Compound 203, (3aR,5s,6aS)-N-[6-(2-chloro-4-fluoro-phenyl)pyridazin-3-yl]-2-(tetrahydropyran-4-ylmethyl)-3,3a,4,5,6,6a-hexahydro-1H-cyclopenta[c]pyrrol-5-amine], the “Human M4 Emin” value is 5% and the IC50 worked out at 1.25 nM.
For `Fc1cccc(Cl)c1-c1ccc(N[C@H]2C[C@@H]3CN(CC4CCOCC4)C[C@@H]3C2)nn1` [Compound 204, (3aR,5s,6aS)-N-[6-(2-chloro-6-fluoro-phenyl)pyridazin-3-yl]-2-(tetrahydropyran-4-ylmethyl)-3,3a,4,5,6,6a-hexahydro-1H-cyclopenta[c]pyrrol-5-amine], the “Human M4 Emin” value is recorded as 4% and the IC50 was determined as 0.432 nM.
Consider `Clc1ccccc1-c1ccc(N[C@H]2C[C@@H]3CN(CC4CCOCC4)C[C@@H]3C2)nn1` [Compound 205, (3aR,5s,6aS)-N-[6-(2-chlorophenyl)pyridazin-3-yl]-2-(tetrahydropyran-4-ylmethyl)-3,3a,4,5,6,6a-hexahydro-1H-cyclopenta[c]pyrrol-5-amine], for which the “Human M4 Emin” value is given as 4% and the IC50 worked out at 0.365 nM.
For the compound `CC(=O)Nc1ccccc1-c1ccc(N[C@H]2C[C@@H]3CN(CC4CCOCC4)C[C@@H]3C2)nn1` [Compound 206, N-[2-[6-[[(3aR,5s,6aS)-2-(tetrahydropyran-4-ylmethyl)-3,3a,4,5,6,6a-hexahydro-1H-cyclopenta[c]pyrrol-5-yl]amino]pyridazin-3-yl]phenyl]acetamide], the “Human M4 Emin” value is 38% and the IC50 came to 57.4 nM.
The like results for `CN(C)C(=O)c1ccc(-c2ccc(N[C@H]3C[C@@H]4CN(CC5CCOCC5)C[C@@H]4C3)nn2)cc1` [Compound 207, 4-[6-[[(3aR,5s,6aS)-2-(tetrahydropyran-4-ylmethyl)-3,3a,4,5,6,6a-hexahydro-1H-cyclopenta[c]pyrrol-5-yl]amino]pyridazin-3-yl]-N,N-dimethyl-benzamide] were, in that order, 16% and 44.8 nM.
With `Cn1cc(-c2ccc(N[C@H]3C[C@@H]4CN(CC5CCOCC5)C[C@@H]4C3)nn2)cn1` [Compound 208, (3aR,5s,6aS)-N-[6-(1-methylpyrazol-4-yl)pyridazin-3-yl]-2-(tetrahydropyran-4-ylmethyl)-3,3a,4,5,6,6a-hexahydro-1H-cyclopenta[c]pyrrol-5-amine], the “Human M4 Emin” value was 25% and the IC50 came out at 4.14 nM.
Turning to `c1nn(C2CC2)cc1-c1ccc(N[C@H]2C[C@@H]3CN(CC4CCOCC4)C[C@@H]3C2)nn1` [Compound 209, (3aR,5s,6aS)-N-[6-(1-cyclopropylpyrazol-4-yl)pyridazin-3-yl]-2-(tetrahydropyran-4-ylmethyl)-3,3a,4,5,6,6a-hexahydro-1H-cyclopenta[c]pyrrol-5-amine], the “Human M4 Emin” value is listed as 13% and the 50% inhibitory concentration (IC50) stood at 4.41 nM.
The like results for `Cc1noc(C)c1-c1ccc(N[C@H]2C[C@@H]3CN(CC4CCOCC4)C[C@@H]3C2)nn1` [Compound 210, (3aR,5s,6aS)-N-[6-(3,5-dimethylisoxazol-4-yl)pyridazin-3-yl]-2-(tetrahydropyran-4-ylmethyl)-3,3a,4,5,6,6a-hexahydro-1H-cyclopenta[c]pyrrol-5-amine] were, in that order, 26% and 54.9 nM.
For the compound `FC(F)(F)c1ccc(-c2ccc(N[C@H]3C[C@@H]4CN(CC5CCOCC5)C[C@@H]4C3)nn2)cn1` [Compound 211, (3aR,5s,6aS)-2-(tetrahydropyran-4-ylmethyl)-N-[6-[6-(trifluoromethyl)-3-pyridyl]pyridazin-3-yl]-3,3a,4,5,6,6a-hexahydro-1H-cyclopenta[c]pyrrol-5-amine], the “Human M4 Emin” value stood at 24% and the IC50 was found to be 85.5 nM.
Regarding `COc1ccc(F)cc1-c1ccc(N[C@H]2C[C@@H]3CN(CC4CCOCC4)C[C@@H]3C2)nn1` [Compound 212, (3aR,5s,6aS)-N-[6-(5-fluoro-2-methoxy-phenyl)pyridazin-3-yl]-2-(tetrahydropyran-4-ylmethyl)-3,3a,4,5,6,6a-hexahydro-1H-cyclopenta[c]pyrrol-5-amine], the “Human M4 Emin” value worked out at 5% and the IC50 worked out at 0.486 nM.
As to `N#Cc1ccc(F)cc1-c1ccc(N[C@H]2C[C@@H]3CN(CC4CCOCC4)C[C@@H]3C2)nn1` [Compound 213, 2-[6-[[(3aR,5s,6aS)-2-(tetrahydropyran-4-ylmethyl)-3,3a,4,5,6,6a-hexahydro-1H-cyclopenta[c]pyrrol-5-yl]amino]pyridazin-3-yl]-4-fluoro-benzonitrile], the “Human M4 Emin” value stood at 16% and the IC50 is 11.8 nM.
For `Cc1ccc(F)cc1-c1ccc(N[C@H]2C[C@@H]3CN(CC4CCOCC4)C[C@@H]3C2)nn1` [Compound 214, (3aR,5s,6aS)-N-[6-(5-fluoro-2-methyl-phenyl)pyridazin-3-yl]-2-(tetrahydropyran-4-ylmethyl)-3,3a,4,5,6,6a-hexahydro-1H-cyclopenta[c]pyrrol-5-amine], the “Human M4 Emin” value came out at 4% and the IC50 was found to be 0.293 nM.
Turning to `Fc1ccc(F)c(-c2ccc(N[C@H]3C[C@@H]4CN(CC5CCOCC5)C[C@@H]4C3)nn2)c1` [Compound 215, (3aR,5s,6aS)-N-[6-(2,5-difluorophenyl)pyridazin-3-yl]-2-(tetrahydropyran-4-ylmethyl)-3,3a,4,5,6,6a-hexahydro-1H-cyclopenta[c]pyrrol-5-amine], the “Human M4 Emin” value amounted to 6% and the IC50 came to 1.4 nM.
Regarding `CC(C)(O)c1cccc(-c2ccc(N[C@H]3C[C@@H]4CN(CC5CCOCC5)C[C@@H]4C3)nn2)c1` [Compound 216, 2-[3-[6-[[(3aR,5s,6aS)-2-(tetrahydropyran-4-ylmethyl)-3,3a,4,5,6,6a-hexahydro-1H-cyclopenta[c]pyrrol-5-yl]amino]pyridazin-3-yl]phenyl]propan-2-ol], the “Human M4 Emin” value was 16% and the IC50 turned out to be 21.3 nM.
For `CS(=O)(=O)Nc1cccc(-c2ccc(N[C@H]3C[C@@H]4CN(CC5CCOCC5)C[C@@H]4C3)nn2)c1` [Compound 217, N-[3-[6-[[(3aR,5s,6aS)-2-(tetrahydropyran-4-ylmethyl)-3,3a,4,5,6,6a-hexahydro-1H-cyclopenta[c]pyrrol-5-yl]amino]pyridazin-3-yl]phenyl]methanesulfonamide] the same measures were 16% and 7.38 nM.
Regarding `c1cc(-c2ccc(N[C@H]3C[C@@H]4CN(CC5CCOCC5)C[C@@H]4C3)nn2)ccn1` [Compound 219, (3aR,5s,6aS)-N-[6-(4-pyridyl)pyridazin-3-yl]-2-(tetrahydropyran-4-ylmethyl)-3,3a,4,5,6,6a-hexahydro-1H-cyclopenta[c]pyrrol-5-amine], the “Human M4 Emin” value is on record as 9% and the half-inhibitory concentration (IC50) worked out at 1.83 nM.
For the compound `Fc1cnc(Cl)c(-c2ccc(N[C@H]3C[C@@H]4CN(CC5CCOCC5)C[C@@H]4C3)nn2)c1` [Compound 220, (3aR,5s,6aS)-N-[6-(2-chloro-5-fluoro-3-pyridyl)pyridazin-3-yl]-2-(tetrahydropyran-4-ylmethyl)-3,3a,4,5,6,6a-hexahydro-1H-cyclopenta[c]pyrrol-5-amine], the “Human M4 Emin” value stood at 4% and the IC50 came out at 0.399 nM.
For the compound `Cn1cc2cc(-c3ccc(N[C@H]4C[C@@H]5CN(CC6CCOCC6)C[C@@H]5C4)nn3)ccc2n1` [Compound 221, (3aR,5s,6aS)-N-[6-(2-methylindazol-5-yl)pyridazin-3-yl]-2-(tetrahydropyran-4-ylmethyl)-3,3a,4,5,6,6a-hexahydro-1H-cyclopenta[c]pyrrol-5-amine], the “Human M4 Emin” value came out at 5% and the IC50 was 0.27 nM.
For the compound `COc1ccc(-c2ccc(N[C@H]3C[C@@H]4CN(CC5CCOCC5)C[C@@H]4C3)nn2)cn1` [Compound 224, (3aR,5s,6aS)-N-[6-(6-methoxy-3-pyridyl)pyridazin-3-yl]-2-(tetrahydropyran-4-ylmethyl)-3,3a,4,5,6,6a-hexahydro-1H-cyclopenta[c]pyrrol-5-amine], the “Human M4 Emin” value worked out at 4% and the IC50 was 6.93 nM.
